Experimental data: patent US20050154035A1, “Methods of using zonisamide as an adjunctive therapy for partial seizures” (Eisai Co., Ltd., priority 2004, published 2005)

What was measured:
T-type Ca^2+ currents = settings: in vitro; cited from earlier work
rat hippocampal slices = settings: 10-30 μg/mL; cited from earlier work
[1] = test system: cultured mouse spinal cord neurons; settings: 10-30 μg/mL, cited from earlier work
[2] = in vivo; cited from earlier work
[3] = Pharmacovigilance review of rhabdomyolysis / CPK elevation in zonisamide-treated patients (U.S. and Japan); settings: human, in vivo
Text: The pharmacovigilance data that were collected, reviewed and analyzed provided the following information in respect of the incidence of rhabdomyolysis/CPK elevation in the zonisamide-treated patient population. To date, a total of 10 cases fulfill the criteria of potential rhabdomyolysis cases. These 10 cases were reviewed in detail for evaluation of possible safety signals. All 10 cases fulfill serious criteria. Of these 10 cases, seven (7) cases were reported as rhabdomyolysis and three (3) cases were reported as CPK increase.
Of the seven (7) rhabdomyolysis cases, six (6) are verbatim cases from Dainippon and one (1) originates in the U.S. Of the seven (7) cases, three (3) were pediatric cases and four (4) were adult cases.
Of the seven (7) rhabdomyolysis cases, two (2) cases have strong confounding factors, but the possibility of zonisamide involvement cannot be completely excluded. Two (2) cases have moderate confounding factors, and zonisamide involvement may be possible.
Of the three (3) cases of CPK increase, one (1) is a verbatim report from Dainippon, and two (2) originated from the U.S. Of the three (3) cases, two are pediatric patients and one is an adult. Of these three (3) cases, two (2) recovered and the outcome of the third is unknown.
Of the three (3) cases of CPK increase, one (1) case has strong confounding factors, but the possibility of zonisamide involvement cannot be completely excluded. One (1) case has weak confounding factors, and zonisamide involvement may be possible.
Estimates of zonisamide exposure, based upon retail and mail order prescriptions, indicate that the number of unique patients taking zonisamide capsules in the U.S. is about 37,276 (total prescriptions per year/average number of prescriptions per patient per year less a calculated percentage decrease based on estimated annual dropouts) in the time between approval in 2000 and December 2002. Hospital patient data for that period, however, is not available and is not reflected in the estimates. Estimates of patient exposure for Japan indicate that the number of unique patients taking zonisamide is about 1,185,177 for time beginning with the approval in Japan through December 2002. Japanese data includes prescription and hospital patient data. Exposure from clinical trials are not included in the U.S. or Japanese exposure estimates. Based on these statistics, the estimated number of patients exposed to zonisamide in the U.S. and Japan is 1,222,453 unique patients. This is a rather conservative estimate, assuring that the number of patients actually exposed to zonisamide is unlikely to be higher than the estimate provided. Similarly, the incidences of rhabdomyolysis estimated herein are unlikely to be higher than calculated. […]

[4] = test system: dopaminergic and serotonergic neurotransmission; settings: in vivo microdialysis; cited from earlier work
[5] = test system: GABA/benzodiazepine receptor ionophore complex; settings: in vitro, cited from earlier work

In the case of `NS(=O)(=O)Cc1noc2ccccc12` [zonisamide, 1,2-benzisoxazole-3-methanesulfonamide], the “effect on voltage-dependent, transient inward currents (T-type Ca2+ currents)” value (T-type Ca^2+ currents) is given as “reduces voltage-dependent, transient inward currents”, the “effect on neuronal or glial uptake of [3H]-GABA” value (rat hippocampal slices) is given as “without affecting” and the “effect on synaptically-driven electrical activity” value [1] is given as “suppresses synaptically-driven electrical activity”. For the same compound, the “effect on postsynaptic GABA or glutamate responses” value ([1]; cultured mouse spinal cord neurons) was “without affecting”, the “doses at which many of the side effects are more frequent” value [2] was ≥ 300 mg per day and the “CPK increase cases with no or only weak confounding factors” value [3] was 2 cases. For the same compound, the “rhabdomyolysis cases with no or only weak confounding factors” value [3] was 3 cases, the “time from initiation of zonisamide treatment to development of CPK increase” value [3] was “two (2) days and six (6) weeks” and the “time from initiation of zonisamide treatment to development of rhabdomyolysis” value [3] was “two (2) weeks and nine (9) years”. For the same compound, the “effect on dopaminergic and serotonergic neurotransmission” value [4] was “facilitates both dopaminergic and serotonergic neurotransmission”, the “binding to the GABA/benzodiazepine receptor ionophore complex” value ([5]; allosteric fashion) was “binds to the GABA/benzodiazepine receptor ionophore complex” and the “effect on chloride flux” value [5] was “does not produce changes in chloride flux”.
